Reference: patent publication US4956294A, “Culture of Streptoverticillium synroense for producing an antibacterial” (Merck & Co., Inc., priority 1989, dated 1990)
In brackets after ≈: the same amount, converted by molar mass. Entries after “also recorded” stand apart in the source; their conditions may differ.

Key:
E. coli TEM 2+ 4351 [1] = assay: Agar dilution, trypticase soy agar; settings: Escherichia coli, 20 h
[2] = test system: Erwinia atroseptica 1159 (4446); assay: Inhibition zone, agar plate; type: cell-based; settings: Pectobacterium atrosepticum, 15λ, read-out: Inhibition Zone Diameter
[3] = test system: B. fragilis Clind^r, Fox^r, Tet^r 4360; assay: Anaerobic agar dilution, Wilkens-Chalgren agar; type: cell-based; settings: Bacteroides fragilis, 48 h
B. fragilis Pen^r 3214 = assay: Anaerobic agar dilution, Wilkens-Chalgren agar; type: cell-based; settings: Bacteroides fragilis, 48 h
Aerobacter aerogenes 835 = assay: Inhibition zone, agar plate; type: cell-based; settings: Klebsiella aerogenes, 15λ, read-out: Inhibition Zone Diameter
B. asaccharolyticus 4271 = assay: Anaerobic agar dilution, Wilkens-Chalgren agar; type: cell-based; settings: Porphyromonas asaccharolytica, 4271, 48 h
[4] = test system: Proteus vulgaris 2112 (episome); assay: Inhibition zone, agar plate; type: cell-based; settings: read-out: Inhibition Zone Diameter
[5] = test system: Salmonella gallinarum 1287; assay: Inhibition zone, agar plate; type: cell-based; settings: Salmonella enterica, 15λ, read-out: Inhibition Zone Diameter
Ser. marcescens 2840 = assay: Agar dilution, antagonist-free medium; settings: Serratia marcescens, 2840, 20 h
[6] = test system: Peptostreptococcus anaerobius 3282; assay: Anaerobic agar dilution, Wilkens-Chalgren agar; type: cell-based; settings: Peptostreptococcus anaerobius, 3282, 48 h
Pasteurella = assay: Combined therapy with erythromycin in infected mice; settings: L-654,040 combined with erythromycin, Pasteurella infection
E. coli TEM 2+ DC2 4352 = assay: Agar dilution, trypticase soy agar; settings: Escherichia coli, 20 h
[7] = test system: Escherichia coli 60 (9637); assay: Inhibition zone, agar plate; type: cell-based; settings: 15λ, read-out: Inhibition Zone Diameter
Prot. vulgaris 2829 [8] = assay: Agar dilution, trypticase soy agar; settings: Proteus vulgaris, 2829, 20 h
[9] = test system: Proteus vulgaris 838 (21100); assay: Inhibition zone, agar plate; type: cell-based; settings: 15λ, read-out: Inhibition Zone Diameter
C. difficile Fox^r 4380 = assay: Anaerobic agar dilution, Wilkens-Chalgren agar; type: cell-based; settings: Clostridioides difficile, 48 h
[10] = test system: Clostridium perfringens NCCLS control strain 4418; assay: microbe, parasite or virus in culture; type: cell-based; settings: 48 h
[11] = test system: Klebsiella pneumoniae 1264; assay: Inhibition zone, agar plate; type: cell-based; settings: 15λ, read-out: Inhibition Zone Diameter
[12] = test system: S. aureus Gm^r Meth^r 4310; assay: Agar dilution, trypticase soy agar; settings: Staphylococcus aureus, 20 h
Sal. typhimurium 3860 [13] = assay: Agar dilution, trypticase soy agar; settings: Salmonella enterica, 20 h
[14] = test system: B. distasonis Pen^r, Fox^r 3445; assay: Anaerobic agar dilution, Wilkens-Chalgren agar; type: cell-based; settings: Parabacteroides distasonis, 48 h
Proteus vulgaris 1012 = assay: Inhibition zone, agar plate; type: cell-based
[15] = test system: Pseudomonas stutzeri 1231 (11607); assay: Inhibition zone, agar plate; type: cell-based; settings: Stutzerimonas stutzeri, 15λ, read-out: Inhibition Zone Diameter
B. ovatus Pen^r 3248 = assay: Anaerobic agar dilution, Wilkens-Chalgren agar; type: cell-based; settings: Bacteroides ovatus, 48 h
[16] = test system: Staphylococcus aureus 108 (6538P); assay: Inhibition zone, agar plate; type: cell-based; settings: 15λ, read-out: Inhibition Zone Diameter
[17] = test system: Bifidobacterium dentium Fox^r 4427; assay: Anaerobic agar dilution, Wilkens-Chalgren agar; type: cell-based; settings: 48 h
[18] = test system: Prot. mirabilis Gm^r 2830; assay: Agar dilution, trypticase soy agar; settings: Proteus mirabilis, 20 h
[19] = test system: Streptococcus agalactiae 2875; assay: Inhibition zone, agar plate; type: cell-based; settings: 15λ, read-out: Inhibition Zone Diameter
Prot. vulgaris 2829 [20] = assay: Agar dilution, antagonist-free medium; settings: Proteus vulgaris, 2829, 20 h
[21] = test system: Pasteurella multocida (4678); assay: Protection and survival of infected mice; settings: intraperitoneal
[22] = test system: B. distasonis Pen^r, Fox^r, Clind^r 4361; assay: Anaerobic agar dilution, Wilkens-Chalgren agar; type: cell-based; settings: Parabacteroides distasonis, 48 h
Ent. cloacae P99- 2647 = assay: Agar dilution, trypticase soy agar; settings: Enterobacter cloacae, P992647, 20 h
E. coli TEM 2+ 4351 [23] = assay: Agar dilution, antagonist-free medium; settings: Escherichia coli, 20 h
Sal. typhimurium 3860 [24] = assay: Agar dilution, antagonist-free medium; settings: Salmonella enterica, 20 h
Eubacterium limosum 3344 = assay: Anaerobic agar dilution, Wilkens-Chalgren agar; type: cell-based; settings: inoculum 10^6 cfu/spot, 35° C., 48 hours
Method: (a) Wilkens-Chalgren agar was used instead of antagonist-free medium (Roche);
(b) The inoculum/spot was about 10^6 instead of about 10^4 ;
(c) The incubation period was for 48 hours, not 24 hours; and
(d) Incubations were performed under anaerobic conditions.

C. perfringens 3509 = assay: microbe, parasite or virus in culture; type: cell-based; settings: Clostridium perfringens, 3509, 48 h

In the case of `C[C@H](CNC(=O)[C@H]1N=C(c2cccc(O)c2O)O[C@@H]1C)C(=O)N[C@@H]1CCCN(O)C1=O` [L-654,040, 2-(2,3-dihydroxyphenyl)-4,5-dihydro-N-[3-[(1-hydroxy-2-oxo-3(R)-piperidinyl)-amino]-2(R)-methyl-3-oxopropyl]-5R-methyl-4S-oxazolecarboxamide], the MIC (E. coli TEM 2+ 4351 [1]) was > 128 µg/mL, the zone of inhibition at 500 µg/mL ([2]; 0.5 mg/ml in distilled H2O) was 0 mm and the zone of inhibition at 2000 µg/mL ([2]; 2 mg/ml in distilled H2O) was 0 mm. For the same compound, the MIC [3] was > 128 µg/mL, the MIC (B. fragilis Pen^r 3214) was > 128 µg/mL and the zone of inhibition at 500 µg/mL (Aerobacter aerogenes 835; 0.5 mg/ml in distilled H2O) was 0 mm. The zone of inhibition at 2000 µg/mL (Aerobacter aerogenes 835; 2 mg/ml in distilled H2O) was 0 mm, the MIC (B. asaccharolyticus 4271) was > 128 µg/mL and the zone of inhibition at 500 µg/mL [4] was 16 mm. The zone of inhibition at 2000 µg/mL [4] was 28 mm, the zone of inhibition at 500 µg/mL ([5]; 0.5 mg/ml in distilled H2O) was 0 mm and the zone of inhibition at 2000 µg/mL ([5]; 2 mg/ml in distilled H2O) was 0 mm. The MIC (Ser. marcescens 2840) was > 256 µg/mL, the MIC [6] was > 128 µg/mL and the “efficacy of combined therapy versus erythromycin alone” value (Pasteurella) was “slightly more effective than erythromycin alone but not to a degree considered to be synergistic”. It also gave an MIC (E. coli TEM 2+ DC2 4352) of 128 µg/mL (≈ 295 µM), a zone of inhibition at 500 µg/mL ([7]; 0.5 mg/ml in distilled H2O) of 0 mm and a zone of inhibition at 2000 µg/mL ([7]; 2 mg/ml in distilled H2O) of 0 mm. For the same compound, the MIC (Prot. vulgaris 2829 [8]) was > 128 µg/mL, the zone of inhibition at 500 µg/mL ([9]; 0.5 mg/ml in distilled H2O) was 18 mm and the zone of inhibition at 2000 µg/mL ([9]; 2 mg/ml in distilled H2O) was 31 mm. For the same compound, the MIC (C. difficile Fox^r 4380) was 128 µg/mL (≈ 295 µM), the MIC [10] was 64 µg/mL (≈ 147 µM) and the zone of inhibition at 500 µg/mL ([11]; 0.5 mg/ml in distilled H2O) was 0 mm. The zone of inhibition at 2000 µg/mL ([11]; 2 mg/ml in distilled H2O) was 0 mm, the MIC [12] was 128 µg/mL (≈ 295 µM) and the MIC (Sal. typhimurium 3860 [13]) was > 128 µg/mL. The MIC [14] was > 128 µg/mL, the zone of inhibition at 500 µg/mL (Proteus vulgaris 1012; Proteus vulgaris, 1012, read-out: Inhibition Zone Diameter) was 24 mm and the zone of inhibition at 2000 µg/mL (Proteus vulgaris 1012; Proteus vulgaris, 1012, 2 mg/ml in distilled H2O, 15λ, read-out: Inhibition Zone Diameter) was 34 mm. For the same compound, the zone of inhibition at 500 µg/mL ([15]; 0.5 mg/ml in distilled H2O) was 12 mm, the zone of inhibition at 2000 µg/mL ([15]; 2 mg/ml in distilled H2O) was 13 mm and the MIC (B. ovatus Pen^r 3248) was > 128 µg/mL. For the same compound, the zone of inhibition at 500 µg/mL ([16]; 0.5 mg/ml in distilled H2O) was 0 mm, the zone of inhibition at 2000 µg/mL ([16]; 2 mg/ml in distilled H2O) was 18 mm and the MIC [17] was > 128 µg/mL. For the same compound, the MIC [18] was > 128 µg/mL, the zone of inhibition at 500 µg/mL ([19]; 0.5 mg/ml in distilled H2O) was 12 mm and the zone of inhibition at 2000 µg/mL ([19]; 2 mg/ml in distilled H2O) was 13 mm. The MIC (Prot. vulgaris 2829 [20]) was > 256 µg/mL, the protection against infection [21] was “did not protect” and the “statistical significance of prolonged survival” value ([21]; two Pasteurella tests) was “statistically significant at one level in two Pasteurella tests”. For the same compound, the survival time ([21]; 160 mg/kg x 2) was “prolongation of survival time was observed; also recorded: did prolong the survival time; also recorded: increases survival time”, the MIC [22] was > 128 µg/mL and the MIC (Ent. cloacae P99- 2647) was > 128 µg/mL. For the same compound, the MIC (E. coli TEM 2+ 4351 [23]) was > 256 µg/mL, the MIC (Sal. typhimurium 3860 [24]) was > 256 µg/mL and the MIC (Eubacterium limosum 3344) was 128 µg/mL (≈ 295 µM). The MIC (C. perfringens 3509) was 64 µg/mL (≈ 147 µM).
